This note sets out measurements from US10253356B2, “Visualizing modified nucleotides and nucleic acid interactions in single cells” (SIGMA-ALDRICH CO. LLC, priority 2014, dated 2019).

Data set [1] deals with SEPTIN 9 promoter methylation in SW480 cells. The data set can be described thus: ISH-PLA visualization of SEPTIN 9 promoter methylation after drug treatment. Format: cell-based, human. The following applies: SW480 colon cancer cells, 500 nM for 24 hours, SEPTIN 9 probe set (ii), FIG. 5.
Procedure: With this aim, a protocol was developed to perform in-situ hybridization followed by proximity ligation assay (PLA) (a.k.a., DUOLINK®, Sigma-Aldrich) and cell imaging to visualize DNA-methylation (5 meC) on the SEPTIN 9 promoter. […] The PLA assay was performed using anti-biotin and anti-5 meC antibodies, corresponding (+ and −) PLA probes, and Far Red detection reagents.
Human cancer cells, i.e., DU145 (metastatic cancer; origin in prostrate migrated to brain) or SW480 (colon cancer), were grown in DMEM (Dulbecco's Modified Eagle's Medium) supplemented with 10% FBS and Pen/Strep antibiotics, and seeded (˜10^4 cells) per well of 8-well culture chambered coverglass plates (with silicone gasket). The cells were washed twice with HBSS, and then fixed with 4% paraformaldehyde solution (40 μL/well, 16% paraformaldehyde stock diluted 1:4 in 1×PBS) for 30 minutes at room temperature (RT). The crosslinking was stopped by adding 5 μL/well of 1.25M Glycine, and incubating at RT for 5 minutes. The cells were permeabilized by incubation for 1 hour at RT with permeabilization buffer (0.75% Tween 20 and 0.75% Triton X-100 in 1×PBS). The cells were rinsed with 1×PBS. For detection of 5-meC DNA, the cells were treated with 4 N HCL for 10 minutes at RT. The cells were washed with 1×PBS for 30 min at RT. […]
A further data set concerns SW480 cells. Description: Cytotoxic effects (cell shape) seen in drug-treated cells during ISH-PLA imaging. Format: cell-based, human. The following applies: 500 nM for 24 hours, a few drug treated cells.

For `Nc1ncn([C@@H]2O[C@H](CO)[C@@H](O)[C@H]2O)c(=O)n1` [5-Azacytidine], the entries for the “SEPTIN 9 promoter methylation (nuclear ISH-PLA signal)” value in data set [1] and in data set [1] (listed as 5-AzaC) were “Loss of this nuclear ISH-PLA signal” and “diminished”, respectively. Moreover, the “cytotoxic effects (altered cellular shape)” value in the data set with SW480 cells was “cytotoxic effects in terms of altered cellular shape”.
